42 molecules from US20200179428A1, “CYCLIC PHOSPHATE SUBSTITUTED NUCLEOSIDE DERIVATIVES AND METHODS OF USE THEREOF FOR THE TREATMENT OF VIRAL DISEASES” (priority 2016, published 2020) can be followed below.

The subject of one data set is replicon cells (1b-Con1). As to the kind of experiment: Replicon activity assay (replicon RNA level by real-time RT-PCR, Taqman). It counts as cell-based. The settings on record: Hepatitis C virus, HCV replicon genotype 1b; read-out: EC50 (1b) Range. The essentials:
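HCV 1b-Con1 replicon cells treated 3 days with 10-point twofold serial dilutions in triplicate (0.5% DMSO, 10% FBS); replicon RNA quantified by Taqman real-time RT-PCR normalised to GAPDH, EC50 derived. Cytotoxicity by MTS read-out at day 3 on identically treated cells.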
On the technique in general: A replicon is a self-replicating genome or part of one, used to study replication in cells.

Data set [1] can be described thus: Cytotoxicity MTS assay (CellTiter 96 Aqueous One Solution) in replicon cells. The class given is cell-based. As to conditions: HCV replicon cells (1b-Con1); EDU; read-out: CC50 (EDU) Range.

Usually EC50 stands for the concentration needed to bring the measured effect to its halfway point. As a reminder, the CC50 is the concentration that lowers cell viability or growth by half.

On to `CC(C)OC(=O)C1CC1CO[P@@]1(=O)OC[C@H]2O[C@@H](n3ccc(=O)[nH]c3=O)[C@](C)(N)[C@@H]2O1` (stereo partly drawn) [Compound 47A], for which the EC50 in the data set on replicon cells (1b-Con1) is above 10 µM. The CC50 at 3 days in data set [1] is above 50 µM.
Taken in the same sequence, the figures for `CC(C)OC(=O)C1CC1CO[P@]1(=O)OC[C@H]2O[C@@H](n3ccc(=O)[nH]c3=O)[C@](C)(N)[C@@H]2O1` (stereo partly drawn) [Compound 47B] were above 10 µM and above 50 µM.
The like results for `CO[C@H](CO[P@@]1(=O)OC[C@H]2O[C@@H](n3ccc(=O)[nH]c3=O)[C@](C)(N)[C@@H]2O1)[C@@H](OC)C(=O)OC(C)C` [Compound 48A] were, in that order, above 10 µM and above 50 µM.
As to `CO[C@H](CO[P@]1(=O)OC[C@H]2O[C@@H](n3ccc(=O)[nH]c3=O)[C@](C)(N)[C@@H]2O1)[C@@H](OC)C(=O)OC(C)C` [Compound 48B], the EC50 with replicon cells (1b-Con1) is above 10 µM. Besides, in data set [1], the cytotoxic concentration (CC50) at 3 days was above 50 µM.
The like results for `CC(C)OC(=O)CC(F)(F)CO[P@@]1(=O)OC[C@H]2O[C@@H](n3ccc(=O)[nH]c3=O)[C@](C)(N)[C@@H]2O1` [Compound 49A] were, in that order, above 10 µM and above 50 µM.
`CC(C)OC(=O)CC(F)(F)CO[P@]1(=O)OC[C@H]2O[C@@H](n3ccc(=O)[nH]c3=O)[C@](C)(N)[C@@H]2O1` [Compound 49B]: the concentration for a half-maximal effect (EC50) in the data set with replicon cells (1b-Con1) fell in the range of 1 to 10 µM. Moreover, the CC50 at 3 days in data set [1] is below 50 µM.
The like results for `C#C[C@]1(C)[C@@H]2O[P@@](=O)(OCC[C@@H](OC(C)=O)C(=O)OC(C)C)OC[C@H]2O[C@H]1n1ccc(=O)[nH]c1=O` [Compound 50A] were, in that order, above 10 µM and above 50 µM.
Taken in the same sequence, the figures for `C#C[C@]1(C)[C@@H]2O[P@](=O)(OCC[C@@H](OC(C)=O)C(=O)OC(C)C)OC[C@H]2O[C@H]1n1ccc(=O)[nH]c1=O` [Compound 50B] were 0.25 to 1 µM and above 50 µM.
On to `C#C[C@]1(C)[C@@H]2O[P@@](=O)(OCC[C@H](OC(C)=O)C(=O)OC(C)C)OC[C@H]2O[C@H]1n1ccc(=O)[nH]c1=O` [Compound 51A], for which the EC50 in the data set on replicon cells (1b-Con1) lay in the range of 1 to 10 µM. Also, in data set [1], the CC50 at 3 days is above 50 µM.
The like results for `C#C[C@]1(C)[C@@H]2O[P@](=O)(OCC[C@H](OC(C)=O)C(=O)OC(C)C)OC[C@H]2O[C@H]1n1ccc(=O)[nH]c1=O` [Compound 51B] were, in that order, at most 0.25 µM and above 50 µM.
In the case of `CC(=O)O[C@H](C(=O)OC(C)C)[C@@H](COP1(=O)OC[C@H]2O[C@@H](n3ccc(=O)[nH]c3=O)[C@](C)(N)[C@@H]2O1)OC(C)=O` (stereo partly drawn) [Compound 53B], in the data set with replicon cells (1b-Con1), the EC50 was above 10 µM. Also, in data set [1], the 50% cytotoxic concentration (CC50) at 3 days is above 50 µM.
The like results for `CC(=O)O[C@@H](CO[P@@]1(=O)OC[C@H]2O[C@@H](n3ccc(=O)[nH]c3=O)[C@](C)(N)[C@@H]2O1)[C@@H](OC(C)=O)C(=O)OC(C)C` [Compound 54A] were, in that order, above 10 µM and above 50 µM.
Taken in the same sequence, the figures for `CC(=O)O[C@@H](CO[P@]1(=O)OC[C@H]2O[C@@H](n3ccc(=O)[nH]c3=O)[C@](C)(N)[C@@H]2O1)[C@@H](OC(C)=O)C(=O)OC(C)C` [Compound 54B] were above 10 µM and above 50 µM.
Regarding `C#C[C@]1(C)[C@@H]2O[P@@](=O)(OCC[C@H](OC)C(=O)OC(C)C)OC[C@H]2O[C@H]1n1ccc(=O)[nH]c1=O` [Compound 56A], in the data set on replicon cells (1b-Con1), the EC50 lay within 0.25 to 1 µM. Also, the CC50 at 3 days in data set [1] is above 50 µM.
Taken in the same sequence, the figures for `C#C[C@]1(C)[C@@H]2O[P@](=O)(OCC[C@H](OC)C(=O)OC(C)C)OC[C@H]2O[C@H]1n1ccc(=O)[nH]c1=O` [Compound 56B] were 0.25 to 1 µM and above 50 µM.
`C#C[C@]1(C)[C@@H]2O[P@@](=O)(OCC[C@@H](OC)C(=O)OC(C)C)OC[C@H]2O[C@H]1n1ccc(=O)[nH]c1=O` [Compound 57A]: the 50% effective concentration (EC50) with replicon cells (1b-Con1) lay in the range of 1 to 10 µM. For the same molecule, the CC50 at 3 days in data set [1] was above 50 µM.
The like results for `C#C[C@]1(C)[C@@H]2O[P@](=O)(OCC[C@@H](OC)C(=O)OC(C)C)OC[C@H]2O[C@H]1n1ccc(=O)[nH]c1=O` [Compound 57B] were, in that order, 1 to 10 µM and above 50 µM.
The like results for `CC(C)OC(=O)CS(=O)(=O)CCO[P@@]1(=O)OC[C@H]2O[C@@H](n3ccc(=O)[nH]c3=O)[C@](C)(N)[C@@H]2O1` [Compound 58A] were, in that order, above 10 µM and below 50 µM.
Taken in the same sequence, the figures for `C#C[C@@]1(O)[C@@H]2O[P@@](=O)(OCCC(C(=O)OC(C)C)C(=O)OC(C)C)OC[C@H]2O[C@H]1n1ccc(=O)[nH]c1=O` [Compound 59A] were 0.25 to 1 µM and above 50 µM.
For `C#C[C@@]1(O)[C@@H]2O[P@](=O)(OCCC(C(=O)OC(C)C)C(=O)OC(C)C)OC[C@H]2O[C@H]1n1ccc(=O)[nH]c1=O` [Compound 59B], the 50% effective concentration (EC50) with replicon cells (1b-Con1) was at most 0.25 µM. Moreover, in data set [1], the CC50 at 3 days was above 50 µM.
Taken in the same sequence, the figures for `C#C[C@]1(C)[C@@H]2O[P@@](=O)(OC[C@H](CC(=O)OC(C)C)OC)OC[C@H]2O[C@H]1n1ccc(=O)[nH]c1=O` [Compound 60A] were above 10 µM and above 50 µM.
Turning to `C#C[C@]1(C)[C@@H]2O[P@](=O)(OC[C@H](CC(=O)OC(C)C)OC)OC[C@H]2O[C@H]1n1ccc(=O)[nH]c1=O` [Compound 60B], the EC50 with replicon cells (1b-Con1) was above 10 µM. In addition, the 50% cytotoxic concentration (CC50) at 3 days in data set [1] was above 50 µM.
Taken in the same sequence, the figures for `CO[C@H](CO[P@@]1(=O)OC[C@H]2O[C@@H](n3ccc(=O)[nH]c3=O)[C@](C)(N)[C@@H]2O1)CC(=O)OC(C)C` [Compound 61A] were above 10 µM and above 50 µM.
The like results for `CO[C@H](CO[P@]1(=O)OC[C@H]2O[C@@H](n3ccc(=O)[nH]c3=O)[C@](C)(N)[C@@H]2O1)CC(=O)OC(C)C` [Compound 61B] were, in that order, above 10 µM and above 50 µM.
Taken in the same sequence, the figures for `C#C[C@]1(C)[C@@H]2O[P@@](=O)(OC[C@@H](CC(=O)OC(C)C)OC)OC[C@H]2O[C@H]1n1ccc(=O)[nH]c1=O` [Compound 62A] were above 10 µM and above 50 µM.
Regarding `C#C[C@]1(C)[C@@H]2O[P@](=O)(OC[C@@H](CC(=O)OC(C)C)OC)OC[C@H]2O[C@H]1n1ccc(=O)[nH]c1=O` [Compound 62B], in the data set on replicon cells (1b-Con1), the concentration for a half-maximal effect (EC50) is above 10 µM. Besides, the CC50 at 3 days in data set [1] was above 50 µM.
Taken in the same sequence, the figures for `CO[C@@H](CO[P@@]1(=O)OC[C@H]2O[C@@H](n3ccc(=O)[nH]c3=O)[C@](C)(N)[C@@H]2O1)CC(=O)OC(C)C` [Compound 63A] were above 10 µM and above 50 µM.
Taken in the same sequence, the figures for `CO[C@@H](CO[P@]1(=O)OC[C@H]2O[C@@H](n3ccc(=O)[nH]c3=O)[C@](C)(N)[C@@H]2O1)CC(=O)OC(C)C` [Compound 63B] were above 10 µM and above 50 µM.
Taken in the same sequence, the figures for `C#C[C@]1(C)[C@@H]2O[P@@](=O)(OC[C@@H](F)CC(=O)OC(C)C)OC[C@H]2O[C@H]1n1ccc(=O)[nH]c1=O` [Compound 64A] were 0.25 to 1 µM and above 50 µM.
For `C#C[C@]1(C)[C@@H]2O[P@](=O)(OC[C@@H](F)CC(=O)OC(C)C)OC[C@H]2O[C@H]1n1ccc(=O)[nH]c1=O` [Compound 64B], in the data set on replicon cells (1b-Con1), the EC50 fell in the range of 0.25 to 1 µM. In addition, the CC50 at 3 days in data set [1] is above 50 µM.
As to `CC(C)OC(=O)C[C@H](F)CO[P@@]1(=O)OC[C@H]2O[C@@H](n3ccc(=O)[nH]c3=O)[C@](C)(N)[C@@H]2O1` [Compound 65A], the 50% effective concentration (EC50) in the data set with replicon cells (1b-Con1) is above 10 µM. Also, the cytotoxic concentration (CC50) at 3 days in data set [1] was above 50 µM.
Taken in the same sequence, the figures for `C#C[C@]1(C)[C@@H]2O[P@@](=O)(OC[C@H](F)CC(=O)OC(C)C)OC[C@H]2O[C@H]1n1ccc(=O)[nH]c1=O` [Compound 66A] were above 10 µM and above 50 µM.
The like results for `C#C[C@]1(C)[C@@H]2O[P@](=O)(OC[C@H](F)CC(=O)OC(C)C)OC[C@H]2O[C@H]1n1ccc(=O)[nH]c1=O` [Compound 66B] were, in that order, 0.25 to 1 µM and above 50 µM.
The like results for `CC(C)OC(=O)C[C@@H](F)CO[P@@]1(=O)OC[C@H]2O[C@@H](n3ccc(=O)[nH]c3=O)[C@](C)(N)[C@@H]2O1` [Compound 67A] were, in that order, above 10 µM and above 50 µM.
Take `C#C[C@]1(C)[C@@H]2O[P@@](=O)(OCCOCC(=O)OC(C)C)OC[C@H]2O[C@H]1n1ccc(=O)[nH]c1=O` [Compound 68A]: the concentration giving a half-maximal response (EC50) in the data set on replicon cells (1b-Con1) is above 10 µM. For the same molecule, in data set [1], the CC50 at 3 days was above 50 µM.
Taken in the same sequence, the figures for `C#C[C@]1(C)[C@@H]2O[P@](=O)(OCCOCC(=O)OC(C)C)OC[C@H]2O[C@H]1n1ccc(=O)[nH]c1=O` [Compound 68B] were 1 to 10 µM and above 50 µM.
`CC(C)OC(=O)COCCO[P@@]1(=O)OC[C@H]2O[C@@H](n3ccc(=O)[nH]c3=O)[C@](C)(N)[C@@H]2O1` [Compound 69A]: the EC50 with replicon cells (1b-Con1) is above 10 µM. For the same molecule, the half-maximal cytotoxic concentration (CC50) at 3 days in data set [1] is above 50 µM.
Taken in the same sequence, the figures for `CC(C)OC(=O)COCCO[P@]1(=O)OC[C@H]2O[C@@H](n3ccc(=O)[nH]c3=O)[C@](C)(N)[C@@H]2O1` [Compound 69B] were above 10 µM and above 50 µM.
Taken in the same sequence, the figures for `CC(C)OC(=O)C(CCO[P@@]1(=O)OC[C@H]2O[C@@H](n3cnc4c(N)ncnc43)[C@](C)(Cl)[C@@H]2O1)C(=O)OC(C)C` [Compound 70A] were 0.25 to 1 µM and above 50 µM.
The like results for `CC(C)OC(=O)C(CCO[P@]1(=O)OC[C@H]2O[C@@H](n3cnc4c(N)ncnc43)[C@](C)(Cl)[C@@H]2O1)C(=O)OC(C)C` [Compound 70B] were, in that order, 1 to 10 µM and above 50 µM.
Consider `CC(C)OC(=O)[C@@H](C)CCO[P@@]1(=O)OC[C@H]2O[C@@H](n3cnc4c(N)ncnc43)[C@](C)(C#N)[C@@H]2O1` [Compound 71A], for which the EC50 in the data set on replicon cells (1b-Con1) is above 10 µM. In addition, the half-maximal cytotoxic concentration (CC50) at 3 days in data set [1] was above 50 µM.
The like results for `CC(C)OC(=O)[C@@H](C)CCO[P@]1(=O)OC[C@H]2O[C@@H](n3cnc4c(N)ncnc43)[C@](C)(C#N)[C@@H]2O1` [Compound 71B] were, in that order, 1 to 10 µM and above 50 µM.
